Patent publication US11045409B2, “Composition comprising a water-insoluble solid organic UV-screening agent and a compound capable of establishing hydrogen bonds” (L'OREAL, priority 2013, dated 2021)

Assay: Maximum solubility of UV-screening agents in compound (B)/isododecane mixtures
Format: physicochemical
Conditions: sonication 45° C. 30 minutes, stable two months at room temperature
Experimental: Solubility Test of the Screening Agents (A) in Mixtures of Compounds (B) and of Isododecane —
300 mg of water-insoluble solid UV-screening agent (A) or of UV-screening agent outside the invention were weighed out in a 10 ml flask, and compound (B) (as a mixture at 50% by weight in isododecane) was then added in increasing amounts until dissolution of the screening agent was complete. The dissolution was performed by sonication at 45° C. for 30 minutes, followed by cooling to room temperature. […] The maximum solubility was given in w/w %, which represents the mass percentage of UV-screening agent in the (B)/isododecane/UV-screening agent mixture. The maximum solubility of the solid screening agent (A) in a solution of isododecane alone (Bo) was also measured as reference.

[1] = in compound (B1) at 50% by weight in isododecane
[2] = in compound (B2) at 50% by weight in isododecane
[3] = in isododecane alone (B0), reference

Compound	Maximum solubility of the UV-screening agent [1]	Maximum solubility of the UV-screening agent [2]	Maximum solubility of the UV-screening agent [3]
CCCCCCCCOC(=O)/C(C#N)=C\C=C\N(CCO)CCO [UV-screening agent No. 3]	5 w/w %	2.5 w/w %	insoluble
Cc1cc(CC(C)C[Si](C)(O[Si](C)(C)C)O[Si](C)(C)C)c(O)c(-n2nc3ccccc3n2)c1 (stereo not drawn) [UV-screening agent No. 2, Drometrizole Trisiloxane]	30 w/w %	30 w/w %	5 w/w %
CCCCCCCCOC(=O)/C(C#N)=C\C=C\N(CC)CC [UV-screening agent No. 4]	2.5 w/w %	5 w/w %	insoluble
CCCCC(CC)COc1ccc(-c2nc(-c3ccc(OC)cc3)nc(-c3ccc(OCC(CC)CCCC)cc3O)n2)c(O)c1 (stereo not drawn) [UV-screening agent No. 8, 2,4-bis{[4-(2-ethylhexyloxy)-2-hydroxy]phenyl}-6-(4-methoxyphenyl)-1,3,5-triazine]	5 w/w %	5 w/w %	1 w/w %
COc1ccc(C(=O)CC(=O)c2ccc(C(C)(C)C)cc2)cc1 [UV-screening agent No. 1, Butylmethoxydibenzoylmethane]	15 w/w %	15 w/w %	1 w/w %
